Laboratory results published in paper PMC10247784, “Physiological activation of human and mouse bitter taste receptors by bile acids” (Communications Biology, 2023).
Where “and” joins values, the source holds several entries; their conditions need not be identical. Equal values may be shown once.

Target: T1, human TAS2R1 (Homo sapiens, UniProt Q9NYW7)
T1 construct: expressed in transfected cells; host or cells: HEK293T-Gα16gust44
T1 sequence (Q9NYW7 1-299): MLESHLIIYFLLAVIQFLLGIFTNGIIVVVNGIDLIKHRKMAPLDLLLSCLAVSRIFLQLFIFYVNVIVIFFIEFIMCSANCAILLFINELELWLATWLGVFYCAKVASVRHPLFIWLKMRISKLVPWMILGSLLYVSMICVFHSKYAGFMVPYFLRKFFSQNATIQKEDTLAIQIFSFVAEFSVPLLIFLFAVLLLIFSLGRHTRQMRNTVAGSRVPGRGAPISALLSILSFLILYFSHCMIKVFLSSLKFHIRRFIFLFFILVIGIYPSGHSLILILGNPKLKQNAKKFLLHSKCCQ
Assay: Calcium imaging assay (FLIPR), HEK293T-Gα16gust44 cells transfected with human TAS2R1
Format: cell-based
Summary of the method: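 Fluo-4 calcium responses; ΔF/F corrected for mock transfection and buffer control; triplicate independent dose-response runs; p < 0.01 threshold.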

C[C@H](CCC(=O)NCCS(=O)(=O)O)[C@H]1CC[C@H]2[C@@H]3[C@H](O)C[C@@H]4C[C@H](O)CC[C@]4(C)[C@H]3C[C@H](O)[C@]12C [Taurocholic Acid, taurocholic acid]
Efficacy = maximal amplitude (ΔF/F) (TAS2R1, bile acids, mean): 0.09987
Efficacy (maximal amplitude ΔF/F), individual data points (TAS2R1, bile acids, single replicates, listed as TCA): 0.08896 and 0.09306 and 0.1176
RLU (Time 0 s (second time grid)): 0 RLU
RLU (Time 2 s): 7.952 RLU
RLU (Time 4 s): 20.145 RLU
RLU (Time 6 s): -3.167 RLU
RLU (Time 8 s): -1.092 RLU
RLU (Time 12 s): 4.801 RLU
RLU (Time 14 s): 10.0652 RLU
RLU (Time 16 s): -4.025 RLU
RLU (Time 18 s): 30.6672 RLU
RLU (Time 18.781 s): -8.288 RLU
RLU (Time 20.781 s): 38.1129 RLU
RLU (Time 22.781 s): 36.5466 RLU
RLU (Time 24.781 s): 100.781 RLU
RLU (Time 26.781 s): 94.321 RLU
RLU (Time 28.781 s): 128.096 RLU
RLU (Time 30.781 s): 168.752 RLU
RLU (Time 32.781 s): 222.063 RLU
RLU (Time 34.781 s): 248.838 RLU
RLU (Time 36.781 s): 287.098 RLU
RLU (Time 38.781 s): 303.962 RLU
RLU (Time 40.781 s): 295.88 RLU
RLU (Time 42.781 s): 354.401 RLU
RLU (Time 44.781 s): 378.941 RLU
RLU (Time 46.781 s): 349.497 RLU
RLU (Time 48.781 s): 364.135 RLU
RLU (Time 50.781 s): 379.282 RLU
RLU (Time 52.781 s): 390.659 RLU
RLU (Time 54.781 s): 392.471 RLU
RLU (Time 56.781 s): 396.221 RLU
RLU (Time 58.781 s): 410.391 RLU
RLU (Time 60.781 s): 390.107 RLU
RLU (Time 62.781 s): 396.638 RLU
RLU (Time 64.781 s): 407.599 RLU
RLU (Time 66.781 s): 435.147 RLU
RLU (Time 68.781 s): 406.802 RLU
RLU (Time 70.781 s): 400.242 RLU
RLU (Time 72.781 s): 418.773 RLU
RLU (Time 74.781 s): 413.176 RLU
RLU (Time 76.781 s): 422.764 RLU
RLU (Time 78.781 s): 402.418 RLU
RLU (Time 80.781 s): 440.793 RLU
RLU (Time 82.781 s): 428.932 RLU
RLU (Time 84.781 s): 402.626 RLU
RLU (Time 86.781 s): 438.62 RLU
RLU (Time 88.781 s): 435.97 RLU
RLU (Time 90.781 s): 417.798 RLU
RLU (Time 92.781 s): 396.047 RLU
RLU (Time 94.781 s): 416.808 RLU
RLU (Time 96.781 s): 401 RLU
RLU (Time 98.781 s): 382.662 RLU
RLU (Time 100.781 s): 386.609 RLU
RLU (Time 102.781 s): 391.574 RLU
RLU (Time 104.781 s): 343.693 RLU
RLU (Time 106.781 s): 334.229 RLU
RLU (Time 108.781 s): 318.822 RLU
RLU (Time 110.781 s): 359.901 RLU
RLU (Time 112.781 s): 338.629 RLU
RLU (Time 114.781 s): 327.9 RLU
RLU (Time 116.781 s): 308.179 RLU
RLU (Time 118.781 s): 311.101 RLU
RLU (Time 120.781 s): 314.431 RLU
RLU (Time 122.781 s): 288.825 RLU
RLU (Time 124.781 s): 292.111 RLU
RLU (Time 126.781 s): 280.428 RLU
RLU (Time 128.781 s): 264.252 RLU
RLU (Time 130.781 s): 247.5 RLU
RLU (Time 132.781 s): 279.196 RLU
RLU (Time 134.781 s): 263.266 RLU
RLU (Time 136.781 s): 260.122 RLU
RLU (Time 137.547 s): 257.068 RLU
RLU (Time 143.547 s): 228.429 RLU
RLU (Time 149.547 s): 221.043 RLU
RLU (Time 155.547 s): 204.711 RLU
RLU (Time 161.547 s): 175.173 RLU
RLU (Time 167.547 s): 178.916 RLU
RLU (Time 173.547 s): 141.583 RLU
RLU (Time 179.547 s): 150.852 RLU
RLU (Time 185.547 s): 123.705 RLU
RLU (Time 191.547 s): 70.5412 RLU
RLU (Time 197.547 s): 46.3148 RLU
RLU (Time 203.547 s): 75.6277 RLU
RLU (Time 209.547 s): 55.0459 RLU
RLU (Time 215.547 s): 35.7219 RLU
RLU (Time 221.547 s): 50.9362 RLU
RLU (Time 227.547 s): 33.794 RLU
RLU (Time 233.547 s): 65.6166 RLU
RLU (Time 239.547 s): 27.332 RLU
RLU (Time 245.547 s): 17.8718 RLU
RLU (Time 293.547 s): -10.6071 RLU
RLU (Time 299.547 s): -16.6248 RLU
RLU (calcium trace, sheet TAS2R1, Time 305.547 s): -3.144 RLU
RLU (calcium trace, sheet TAS2R1, Time 311.547 s): 2.9951 RLU
RLU (calcium trace, sheet TAS2R1, Time 317.547 s): -15.9144 RLU
RLU (calcium trace, sheet TAS2R1, Time 323.547 s): -10.1142 RLU
RLU (calcium trace, sheet TAS2R1, Time 329.547 s): 11.6208 RLU
RLU (calcium trace, sheet TAS2R1, Time 335.547 s): 11.3706 RLU
RLU (calcium trace, sheet TAS2R1, Time 341.547 s): 7.052 RLU
RLU (calcium trace, sheet TAS2R1, Time 347.547 s): 31.851 RLU
RLU (calcium trace, sheet TAS2R1, Time 353.547 s): 3.282 RLU
RLU (calcium trace, sheet TAS2R1, Time 359.547 s): 34.6741 RLU
Δ F/F (conc. 0,01 mM, TAS2R1): 0.007126
Δ F/F (conc. 0,1 mM, TAS2R1): 0.04642
Δ F/F (conc. 0,03 mM, TAS2R1): 0.01897
Δ F/F (conc. 0,3 mM, TAS2R1): 0.09987
Δ F/F (conc. 0,001 mM, TAS2R1): 0.004203
Δ F/F (conc. 0,003 mM, TAS2R1): 0.00592
Activation threshold concentration TAS2R1 (lowest concentration with significantly increased fluorescence vs empty vector (p < 0.01)): 100 µM and 100.00 µM
